Results reported in patent US20250230193A1, “CYCLIC COMPOUND HAVING SELECTIVE KRAS INHIBITORY EFFECT ON HRAS AND NRAS” (CHUGAI SEIYAKU KABUSHIKI KAISHA, priority 2022, published 2025).
Like-named read-outs stand apart in the source and are kept apart here.

What was measured:
[1] = biological target: GDP-bound KRAS wild-type protein (Homo sapiens, UniProt P01116); test: Binding to KRAS by surface plasmon resonance (SPR), Single Cycle Kinetics; details: GDP-bound KRAS wild-type protein
[2] = system: human lung cancer strain NCI-H441
[3] = biological target: GDP-bound HRAS wild-type protein (Homo sapiens, UniProt P01112); test: Binding to HRAS by surface plasmon resonance (SPR), Single Cycle Kinetics; details: SPR
Chain of GDP-bound HRAS wild-type protein (P01112 whole entry): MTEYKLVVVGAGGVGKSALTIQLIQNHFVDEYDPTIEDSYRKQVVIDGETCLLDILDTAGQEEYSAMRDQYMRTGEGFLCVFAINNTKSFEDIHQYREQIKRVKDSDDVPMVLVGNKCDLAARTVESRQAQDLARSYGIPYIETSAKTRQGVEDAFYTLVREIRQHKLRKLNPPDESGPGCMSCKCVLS

[4] = biological target: GDP-bound NRAS wild-type protein (Homo sapiens, UniProt P01111); test: Binding to NRAS by surface plasmon resonance (SPR), Single Cycle Kinetics; details: SPR
Chain of GDP-bound NRAS wild-type protein (P01111 whole entry): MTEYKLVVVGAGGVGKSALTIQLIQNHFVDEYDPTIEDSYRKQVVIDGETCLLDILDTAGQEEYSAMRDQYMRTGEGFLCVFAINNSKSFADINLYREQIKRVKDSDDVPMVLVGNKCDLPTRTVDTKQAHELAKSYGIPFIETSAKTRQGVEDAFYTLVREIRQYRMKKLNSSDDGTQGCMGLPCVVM

[5] = SPR Single Cycle Kinetics, 1:1 binding model

SMILES | Kd ([1]; SPR, Single Cycle Kinetics) [nM] | IC50 ([2]; read-out: NCI-H441 IC50, NCI-H441 cells, 4 days, CellTiter-Glo) [nM] | HRAS/KRAS (ratio of KD value for GDP-bound HRAS wild-type protein to KD value for KRAS) ([3]; KD ratio class) | NRAS/KRAS (ratio of KD value for GDP-bound NRAS wild-type protein to KD value for KRAS) ([4]; KD ratio class) | Kd [1, 5] [nM] | IC50 [2] [nM] | HRAS/KRAS (ratio of KD value for HRAS to KD value for KRAS) ([3]; KD ratio, GDP-bound HRAS wild-type vs GDP-bound KRAS wild-type) | NRAS/KRAS (ratio of KD value for NRAS to KD value for KRAS) ([4]; KD ratio, GDP-bound NRAS wild-type vs GDP-bound KRAS wild-type) | HRAS/KRAS (ratio of KD value with respect to GDP-bound HRAS wild-type protein to KD value with respect to KRAS) ([3]; KD ratio HRAS/KRAS, GDP-bound wild-type proteins) | NRAS/KRAS (ratio of KD value with respect to GDP-bound NRAS wild-type protein to KD value with respect to KRAS) ([4]; KD ratio NRAS/KRAS, GDP-bound wild-type proteins)
CCO[C@@H]1C[C@H]2C(=O)NC3(CC(F)(F)C3)C(=O)N(C)[C@@H](C3CCCC3)C(=O)N(C)C(C(C)C)CC(=O)N(C)[C@@H](CC3CC3)C(=O)N[C@@H]([C@@H](C)CC)C(=O)N(C)CC(=O)N(C)[C@H]3C/C=C\CCN(C3=O)[C@@H](Cc3ccc(C(F)(F)F)cc3)C(=O)N(C)CC(=O)N[C@@H](CCc3cc(F)c(C(F)(F)F)c(F)c3)C(=O)N2C1 (stereo partly drawn) [PP1598] | 0.76 | 36.6 | A (a compound having 10 or more and less than 20 is denoted as A) | A (a compound having 10 or more and less than 20 is denoted as A) | – | – | – | – | – | –
CCO[C@@H]1C[C@H]2C(=O)NC3(CCC3)C(=O)N(C)[C@@H](C3CCCC3)C(=O)N(C)[C@H](C(=O)N(C)CC)CC(=O)N(C)[C@H]3CCCC/C=C/c4ccc(cc4)C[C@@H](C(=O)N(C)CC(=O)N[C@@H](CCc4ccc(C(F)(F)F)c(OC)c4)C(=O)N2C1)N1CC/C=C\C[C@@H](C1=O)N(C)C(=O)CN(C)C(=O)[C@H]([C@@H](C)CC)NC3=O [PP1828] | – | – | – | – | 0.039 | 1.9 | B (a compound having 3 or more and less than 10 is denoted as B) | A (a compound having 10 or more and less than 20 is denoted as A) | – | –
CC[C@H](C)[C@@H]1NC(=O)[C@@H](CC(C)C)N(C)C(=O)CSC[C@H](C(=O)N(C)C)N(C)C(=O)[C@@H](C2CCCC2)N(C)C(=O)C2(CCCC2)NC(=O)[C@@H]2CCCN2C(=O)[C@H](CCc2cc(F)c(C(F)(F)F)c(F)c2)NC(=O)CN(C)C(=O)[C@H](Cc2ccc(C(F)(F)F)cc2)N2CC=CC[C@@H](C2=O)N(C)C(=O)CN(C)C1=O [PP3108] | – | – | – | – | 870 | 9250 | – | – | B (a compound having 3 or more and less than 10 is denoted as B) | C (A compound having a KD ratio of 0.1 or more and less than 3 is denoted as C)
